Data published in PMC7419506, “KN3014, a piperidine-containing small compound, inhibits auto-secretion of IL-1β from PBMCs in a patient with Muckle–Wells syndrome” (Scientific Reports, 2020).

Target: T1, ASC (Homo sapiens, UniProt Q96P20+Q9ULZ3)
T1 construct: gene PYCARD; FLAG-ASC-PYD (N-terminal FLAG-tagged pyrin domain of ASC); with NLRP3 (NLRP3-FL-Btn, C-terminal biotinylated full-length)
Experiment: ALPHA-screen protein-protein interaction inhibition, wheat germ cell-free synthesized proteins
Assay type: binding
From the text: ALPHA-screen protein-protein interaction inhibition, wheat germ cell-free synthesized proteins on ASC | The interaction between NLRP3-FL-Btn and FLAG-ASC-PYD was disrupted by both KN3014 and KN8311 in a dose-dependent manner.

T1 sequence (Q9ULZ3 1-91 limits assumed): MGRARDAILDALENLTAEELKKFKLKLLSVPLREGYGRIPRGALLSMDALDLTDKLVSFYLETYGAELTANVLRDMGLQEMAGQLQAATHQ
T1 sequence (Q96P20 whole entry, the tested form may be a part): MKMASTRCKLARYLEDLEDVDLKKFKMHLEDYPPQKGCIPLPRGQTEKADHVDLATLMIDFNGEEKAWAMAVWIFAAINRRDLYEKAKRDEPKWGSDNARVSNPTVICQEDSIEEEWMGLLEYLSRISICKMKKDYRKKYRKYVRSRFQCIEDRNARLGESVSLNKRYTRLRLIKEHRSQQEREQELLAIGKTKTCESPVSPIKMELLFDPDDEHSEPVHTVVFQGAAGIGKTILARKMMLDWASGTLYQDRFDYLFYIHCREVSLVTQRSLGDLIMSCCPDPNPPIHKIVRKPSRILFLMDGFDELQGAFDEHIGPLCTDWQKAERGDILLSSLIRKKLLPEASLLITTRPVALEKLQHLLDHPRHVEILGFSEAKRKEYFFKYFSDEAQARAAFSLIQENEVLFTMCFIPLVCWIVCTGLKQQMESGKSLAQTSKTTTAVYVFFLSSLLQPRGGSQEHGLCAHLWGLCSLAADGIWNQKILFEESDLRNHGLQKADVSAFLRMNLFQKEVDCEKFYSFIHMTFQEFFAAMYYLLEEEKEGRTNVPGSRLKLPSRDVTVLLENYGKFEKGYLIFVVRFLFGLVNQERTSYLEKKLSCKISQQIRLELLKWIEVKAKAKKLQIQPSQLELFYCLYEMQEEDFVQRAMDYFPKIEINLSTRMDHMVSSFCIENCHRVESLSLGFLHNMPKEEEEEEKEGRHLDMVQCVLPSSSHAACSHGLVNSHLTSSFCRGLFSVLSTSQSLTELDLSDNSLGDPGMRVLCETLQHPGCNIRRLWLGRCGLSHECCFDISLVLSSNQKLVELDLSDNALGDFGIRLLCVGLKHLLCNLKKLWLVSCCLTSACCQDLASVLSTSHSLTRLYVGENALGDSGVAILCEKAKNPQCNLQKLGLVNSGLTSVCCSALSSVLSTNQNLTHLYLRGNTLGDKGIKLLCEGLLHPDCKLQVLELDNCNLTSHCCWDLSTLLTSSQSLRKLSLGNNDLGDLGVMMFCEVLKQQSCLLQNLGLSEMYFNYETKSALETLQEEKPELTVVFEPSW

SMILES: Cc1ccccc1OCC(=O)NCC(c1ccc2c(c1)CCCN2C)N1CCCCC1 (stereo not shown) [KN3014, N-(2-(1-methyl-1,2,3,4-tetrahydroquinolin-6-yl)-2-(piperidin-1-yl)ethyl)-2-(o-tolyloxy)acetamide]
- IC50: 14.6 µM
